Laboratory results reported in PMC5295242, “Synthesis of Natural O-Linked Carba-Disaccharides, (+)- and (−)-Pericosine E, and Their Analogues as α-Glucosidase Inhibitors” (Marine Drugs, 2017).

Assays:
[1] = target: β-glucosidase (sweet almond); test: β-glucosidase inhibition assay (p-nitrophenyl β-D-glucopyranoside substrate); format: biochemical; settings: sweet almond enzyme; NI = no inhibition
Description: (§1) Eight samples synthesized here were used in a biological assay against three glycosidases, namely α-glucosidase (yeast), β-glucosidase (sweet almond), and α-mannosidase (Jack bean).
(§2) After incubation for 20 min at 37 °C, the reaction was interrupted by the addition of 0.5 M sodium carbonate (100 μL). The amount of p-nitrophenol liberated was measured colorimetrically at 400 nm (optical density at 400 nm: ODtest). […] Assays for β-glucosidase and α-mannosidase were carried out as outlined above using p-nitrophenyl β-D-glucopyranoside and α-D-mannopyranoside as the substrates.
(§3) Assays on β-glucosidase and α-mannnosidase inhibition of synthesized carbadisaccharides 6 and 21–23 were carried out in a similar fashion.

[2] = target: T1, α-mannosidase (Jack bean) (Canavalia ensiformis, UniProt C0HJB3); test: α-mannosidase inhibition assay (p-nitrophenyl α-D-mannopyranoside substrate); format: biochemical; settings: Jack bean enzyme; NI = no inhibition
T1 construct: purchased Sigma-Aldrich Co. LLC. lot; 055K7047 (catalogue number not given)
T1 sequence (C0HJB3 1-981): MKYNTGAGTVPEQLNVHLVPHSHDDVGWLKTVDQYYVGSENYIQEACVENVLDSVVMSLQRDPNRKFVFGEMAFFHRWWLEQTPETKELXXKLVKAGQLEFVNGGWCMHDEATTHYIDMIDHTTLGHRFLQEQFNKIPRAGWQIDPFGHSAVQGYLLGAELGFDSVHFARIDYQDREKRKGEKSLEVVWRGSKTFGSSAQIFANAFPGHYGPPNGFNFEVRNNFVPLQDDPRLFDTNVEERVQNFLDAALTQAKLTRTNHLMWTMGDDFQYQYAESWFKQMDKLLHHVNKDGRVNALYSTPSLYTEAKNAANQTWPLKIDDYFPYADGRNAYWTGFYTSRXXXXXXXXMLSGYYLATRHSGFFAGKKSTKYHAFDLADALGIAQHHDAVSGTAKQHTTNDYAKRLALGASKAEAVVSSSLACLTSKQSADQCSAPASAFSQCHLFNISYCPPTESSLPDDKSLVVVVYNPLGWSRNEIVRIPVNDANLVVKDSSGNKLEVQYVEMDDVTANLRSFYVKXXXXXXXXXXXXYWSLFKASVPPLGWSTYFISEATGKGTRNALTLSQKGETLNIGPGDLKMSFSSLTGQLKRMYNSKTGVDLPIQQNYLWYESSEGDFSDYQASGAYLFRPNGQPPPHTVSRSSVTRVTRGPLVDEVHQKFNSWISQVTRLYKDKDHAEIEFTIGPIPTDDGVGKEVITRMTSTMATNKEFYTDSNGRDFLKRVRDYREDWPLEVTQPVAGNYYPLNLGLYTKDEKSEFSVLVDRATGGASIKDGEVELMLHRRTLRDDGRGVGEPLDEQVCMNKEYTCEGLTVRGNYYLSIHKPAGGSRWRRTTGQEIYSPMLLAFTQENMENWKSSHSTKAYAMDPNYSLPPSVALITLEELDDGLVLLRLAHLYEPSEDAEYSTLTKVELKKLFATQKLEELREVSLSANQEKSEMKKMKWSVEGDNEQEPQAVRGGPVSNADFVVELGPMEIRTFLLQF
Description: as §1, §2, §3

[3] = system: melanoma cell line UACC-62; parameters: method as in PMID 24285637, PMID 26928999; settings: cited from earlier work
α-glucosidase (yeast) = α-glucosidase (yeast) (Saccharomyces cerevisiae, UniProt P53341); test: α-glucosidase inhibition assay (p-nitrophenyl α-D-glucopyranoside substrate); format: biochemical; settings: yeast enzyme; relative to positive control DNJ
α-glucosidase (yeast), sequence (P53341 whole entry): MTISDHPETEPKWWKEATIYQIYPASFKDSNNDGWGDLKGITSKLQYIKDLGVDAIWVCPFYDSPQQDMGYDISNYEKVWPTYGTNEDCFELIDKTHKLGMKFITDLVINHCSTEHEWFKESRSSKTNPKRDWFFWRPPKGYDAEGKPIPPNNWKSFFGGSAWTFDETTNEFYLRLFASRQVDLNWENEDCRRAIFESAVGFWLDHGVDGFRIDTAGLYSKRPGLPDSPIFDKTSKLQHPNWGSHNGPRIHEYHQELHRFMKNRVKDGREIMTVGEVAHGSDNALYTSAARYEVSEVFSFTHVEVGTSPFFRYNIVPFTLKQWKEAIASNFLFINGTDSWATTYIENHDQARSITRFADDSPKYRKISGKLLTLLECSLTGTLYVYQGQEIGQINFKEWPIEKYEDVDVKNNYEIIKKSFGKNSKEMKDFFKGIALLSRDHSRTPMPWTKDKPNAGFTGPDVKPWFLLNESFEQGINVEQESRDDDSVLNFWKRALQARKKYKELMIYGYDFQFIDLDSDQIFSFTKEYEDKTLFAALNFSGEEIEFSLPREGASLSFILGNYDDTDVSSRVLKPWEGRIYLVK
Description: as §1, §2

Row | IC50 [1] [mM] | IC50 [2] [mM] | Structure (SMILES) | inhibition against melanoma cell line UACC-62 [3] | α-glucosidase inhibitory potency relative to deoxynojirimycin (DNJ), fold/times (α-glucosidase (yeast))
1 | > 10 | > 10 | COC(=O)C1=C[C@H](O)[C@H](O)[C@H](O)[C@@H]1O[C@H]1[C@@H](O)[C@@H](O)C=C(C(=O)OC)[C@@H]1Cl [(+)-22] | – | –
2 | > 10 | > 10 | COC(=O)C1=C[C@H](O)[C@H](O)[C@@H](O)[C@@H]1O[C@H]1[C@@H](O)[C@@H](O)C=C(C(=O)OC)[C@@H]1Cl [(+)-23] | – | –
3 | > 10 | > 10 | COC(=O)C1=C[C@H](O)[C@H](O)[C@H](O[C@H]2C(C(=O)OC)=C[C@@H](O)[C@@H](O)[C@H]2O)[C@H]1Cl [(+)-pericosine E (6)] | – | –
4 | – | – | C=C[C@@H]1C[C@H](C)C[C@H](C)[C@H]1c1c(O)ccn(O[C@@H]2C(C(=O)OC)=C[C@@H](O)[C@@H](O)[C@H]2O)c1=O [maximiscin] | potent inhibition | –
6 | > 10 | > 10 | COC(=O)C1=C[C@H](O)[C@H](O)[C@H](O[C@H]2C(C(=O)OC)=C[C@@H](O)[C@@H](O)[C@@H]2O)[C@H]1Cl [(+)-21] | – | –
7 | > 10 | > 10 | COC(=O)C1=C[C@@H](O)[C@@H](O)[C@@H](O[C@H]2C(C(=O)OC)=C[C@@H](O)[C@@H](O)[C@H]2O)[C@@H]1Cl [(−)-22] | – | –
9 | > 10 | > 10 | COC(=O)C1=C[C@@H](O)[C@@H](O)[C@@H](O[C@H]2C(C(=O)OC)=C[C@@H](O)[C@@H](O)[C@@H]2O)[C@@H]1Cl [(−)-23] | – | –

Row | Structure (SMILES) | IC50 [1] [mM] | IC50 [2] [mM] | inhibition against melanoma cell line UACC-62 [3] | α-glucosidase inhibitory potency relative to deoxynojirimycin (DNJ), fold/times (α-glucosidase (yeast))
10 | COC(=O)C1=C[C@@H](O)[C@@H](O)[C@@H](O[C@@H]2C(C(=O)OC)=C[C@H](O)[C@H](O)[C@@H]2O)[C@@H]1Cl [(−)-pericosine E (6), (3R,4R,5R,6R)-methyl 6-chloro-3,4-dihydroxy-5-{[(1R,4S,5S,6S)-4,5,6-trihydroxy-2-(methoxycarbonyl)cyclohex-2-en-1-yl]oxy}cyclohex-1-enecarboxylate] | > 10 | > 10 | – | one-third
11 | COC(=O)C1=C[C@@H](O)[C@@H](O)[C@@H](O[C@@H]2C(C(=O)OC)=C[C@H](O)[C@H](O)[C@H]2O)[C@@H]1Cl [(−)-21] | > 10 | > 10 | – | one-third
